Measured values taken from patent US6780633B2, “Methods for producing optically active amino acids” (Sumitomo Chemical Company, Limited, priority 1999, dated 2004).

Legend:
Type in all cases: cell-based
[1] = system: Klebsiella planticola JCM7251; assay: effect of aminotransferase inhibitor on production of L-p-chlorophenylalanine from D-form by cells; settings: inhibitor final 1 mM; 30° C., 2 hours; absence of inhibitor = 100%
Description: (§1) A 500 mL Sakaguchi flask containing 100 ml of a sterilized medium (pH 7.0) containing 1.0% (w/v) glycerol, 0.2% (w/v) polypeptone (Nihon Pharmaceutical Co., Ltd.), 0.3% (w/v) meat extract (Kyokuto Pharmaceutical Ind., Co., Ltd.), 0.3% (w/v) yeast extract (Difco), 0.1% (w/v) dipotassium phosphate, 0.1% (w/v) potassium mono phosphate, 0.03% (w/v) magnesium sulfate heptahydrate was inoculated with 1 mL of a culture of Nocardia diaphanozonaria strain JCM3208 which had previously been cultivated in a medium of the similar composition, and incubated at 30° C. for 2 days with a reciprocal shaking. 80 ml of this culture was subjected to centrifugation (10000 g, 10 minutes) to collect wet cells. The collected wet cells were washed twice with 80 ml of 100 mM potassium phosphate buffer (pH 7.0) and the wet cells thus obtained was suspended in 4 mL of 100 mM potassium phosphate buffer (pH 7.0) to obtain a cell suspension.
(§2) 0.2 ml of the cell suspension was combined with 1.8 mL of 100 mM potassium phosphate buffer (pH7.0) containing D-p-chlorophenylalanine at 5.5 mM and an aminotransferase inhibitor shown in Table 6 at 1.1 mM, and incubated at 30° C. for 2 hours with a reciprocal shaking at 250 rpm. Each reaction mixture was analyzed at an early stage of the reaction by HPLC to quantify L-p-chlorophenylalanine produced by the reaction. The results are represented as the relative values each based on 100% production of L-p-chlorophenylalanine in the absence of the respective aminotransferase inhibitor.
(§3) The reaction was performed similarly as in Example 6 except for using each of the microorganisms shown in Table 7 instead of Nocardia diaphanozonaria strain JCM3208.

[2] = system: Pseudomonas oleovorans IFO13583; assay: as above; settings: inhibitor final 1 mM; 30° C., 2 hours; absence of inhibitor = 100%
Description: as §1, §2, §3

[3] = system: Flavimonas oryzihabitans JCM2952; assay: as above; settings: inhibitor final 1 mM; 30° C., 2 hours; absence of inhibitor = 100%
Description: as §1, §2, §3

[4] = system: Pseudomonas taetrolens IFO3460; assay: as above; settings: inhibitor final 1 mM; 30° C., 2 hours; absence of inhibitor = 100%
Description: as §1, §2, §3

[5] = system: Rhizobium meliloti IFO14782; assay: as above; settings: inhibitor final 1 mM; 30° C., 2 hours; absence of inhibitor = 100%
Description: as §1, §2, §3

[6] = system: Pseudomonas chlororaphis IFO3521; assay: as above; settings: inhibitor final 1 mM; 30° C., 2 hours; absence of inhibitor = 100%
Description: as §1, §2, §3

[7] = system: Nocardia diaphanozonaria strain JCM3208; assay: as above; settings: inhibitor final concentration 1 mM; D-p-chlorophenylalanine 5.5 mM; 30° C., 2 hours (early stage); absence of inhibitor = 100%
Description: as §1, §2

[8] = system: Saccharopolyspora hirsuta JCM9109; assay: effect of aminotransferase inhibitor on production of L-p-chlorophenylalanine from D-form by cells, at equilibrium; settings: inhibitor final 1 mM; 30° C., 24 hours (reaction equilibrated); absence of inhibitor = 100%
Description: as §1, §2
(§4) The reaction was performed similarly as in Example 6 except for using each of the microorganisms shown in Table 8 instead of Nocardia diaphanozonaria strain JCM3208 and except that the reaction time was 24 hours (when the reaction was equilibrated).

[9] = system: Pseudomonas oxalaticus IFO13593; assay: as above; settings: inhibitor final 1 mM; 30° C., 24 hours (reaction equilibrated); absence of inhibitor = 100%
Description: as §1, §2, §4

[10] = system: Streptomyces roseus IFO12818; assay: as above; settings: inhibitor final 1 mM; 30° C., 24 hours (reaction equilibrated); absence of inhibitor = 100%
Description: as §1, §2, §4

[11] = system: Arthrobacter pascens IFO12139; assay: as above; settings: inhibitor final 1 mM; 30° C., 24 hours (reaction equilibrated); absence of inhibitor = 100%
Description: as §1, §2, §4

Compound	Relative value (%) of production of L-p-chlorophenylalanine [1] [%]	Relative value (%) of production of L-p-chlorophenylalanine [2] [%]	Relative value (%) of production of L-p-chlorophenylalanine [3] [%]	Relative value (%) of production of L-p-chlorophenylalanine [4] [%]	Relative value (%) of production of L-p-chlorophenylalanine [5] [%]	Relative value (%) of production of L-p-chlorophenylalanine [6] [%]	Relative value (%) of production of L-p-chlorophenylalanine [7] [%]	Relative value (%) of production of L-p-chlorophenylalanine [8] [%]	Relative value (%) of production of L-p-chlorophenylalanine [9] [%]	Relative value (%) of production of L-p-chlorophenylalanine [10] [%]	Relative value (%) of production of L-p-chlorophenylalanine [11] [%]
NC1C=CC=C(C(=O)O)C1 (racemic) [DL-Gabaculine]	102	87	105	75	88	72	92	97	105	97	96
N[C@H](CCl)C(=O)O [β-Chloro-D-alanine]	90	91	144	84	108	85	108	99	124	114	83
N[C@@H](CCl)C(=O)O [β-Chloro-L-alanine]	92	94	92	87	96	102	121	101	91	95	84
